Tested on: T1, Chick pea β-galactosidase (CpGAL)
T1 construct: native enzyme purified from dry seeds (local market), homogeneous on SDS-PAGE; soluble (free) form
Test: steady-state kinetics, Lineweaver-Burk plot
Format: biochemical, Cicer arietinum
Details: soluble enzyme; optimum pH 2.8, 60 °C printed; pH of the Km assay not stated; read-out: Soluble / ONPG
Excerpt: steady-state kinetics, Lineweaver-Burk plot on Chick pea β-galactosidase (CpGAL)

O=[N+]([O-])c1ccccc1O[C@@H]1O[C@H](CO)[C@H](O)[C@H](O)[C@H]1O [ONPG]
Km: 1730 µM
